Data as given in publication PMC4537050, “A long pentraxin-3-derived pentapeptide for the therapy of FGF8b-driven steroid hormone-regulated cancers” (Oncotarget, 2015).

System: HUVEC spheroids
Assay: Endothelial cell sprouting assay (HUVEC spheroids in fibrin gel)
Format: cell-based, human
Details: 60 μM peptide, 24 h
Protocol: HUVEC spheroid aggregates were prepared in 20% methylcellulose medium, embedded in fibrin gel, and stimulated with FGF8b or VEGF-A (both at 30 ng/ml) plus 5% FBS in the absence or presence of 60 μM ARPCA or ARPVA. Formation of radially growing cell sprouts was observed during the next 24 h, photographed at 200x magnification using an Axiovert 200M microscope (Carl Zeiss, Milan, Italy, EU) and counted.

In the case of Ac-ARPCA-NH2 [ARPCA, Ac-ARPCA-NH2], the “sprouting activity exerted by FGF8b on HUVEC spheroids” value (30 ng/ml FGF8b) is reported as “specifically prevents the pro-angiogenic/sprouting activity” and the “effect on the angiogenic potential of VEGF-A on HUVEC spheroids” value (30 ng/ml VEGF-A) is reported as “no effect”.
